From patent EP4621028A1, “FLUORESCENCE RECOVERY IN NANOGRAPHENE” (Max-Planck-Gesellschaft zur Förderung der Wissenschaften …, priority 2024, dated 2025)

Assays:
[1] = Absorption and fluorescence in toluene; format: physicochemical; conditions: for molar extinction coefficient ε: at maximum absorption wavelength
Solubility in water = format: physicochemical; conditions: room temperature
Procedure: In accordance with the present invention, the solubility and particularly the solubility of the compound having the general formula (1) or the general formula (2) in water at 23°C is measured as follows: 1 mg sample is weighed into an Erlenmeyer flask and is then mixed homogeneously with 4 ml of water with a spatula at 23°C. The remaining substance on the spatula is stripped off with a magnetic stirrer bar, which is then added to the Erlenmeyer flask. While stirring with a magnetic stirrer, water is added dropwise with a burette until the solution in the Erlenmeyer flask becomes clear at 23°C. After that, the solubility of compound in water is calculated by calculating the ratio of weighed compound divided by the volume of added water and then by recalculating this ratio to 1 I of water.

Compound	molar extinction coefficient ε ([1]; in toluene (10^-5 mol/L))	absorption spectrum and emission spectrum [1]	further results
6,14-didodecyldibenzo[hi,st]ovalene [Example 2]	203000 M⁻¹ cm⁻¹	–	fluorescence quantum yield ([1]; in toluene (10^-5 mol/L)): 0.85; maximum absorption wavelength ([1]; in toluene (10^-5 mol/L)): 611 nm
Cc1cccc(C)c1-c1c2cccc3c4ccc5ccc6c(-c7c(C)cccc7C)c7cccc8c9ccc%10ccc1c1c%10c9c9c(c78)c6c5c4c9c1c23 [Example 3, 6, 14-bis(dimethylphenyl)dibenzo[hi,st]ovalene]	283000 M⁻¹ cm⁻¹	narrow absorption spectrum as well as a narrow emission spectrum	–
COCCOCCOCCOCCOc1cc(-c2ccc3cc4cc5c(-c6c(C)cc(C)cc6C)cc6cc7c(-c8cc(OCCOCCOCCOCCOC)c(OCCOCCOCCOCCOC)c(OCCOCCOCCOCCOC)c8)ccc8cc9cc%10c(-c%11c(C)cc(C)cc%11C)cc%11cc2c3c2c%11c%10c3c9c(c87)c6c5c3c42)cc(OCCOCCOCCOCCOC)c1OCCOCCOCCOCCOC [Example 5, 3,11-bis(3,4,5-tris(2,5,8,11-tetraoxatridecan-13-yloxy)phenyl)-6,14-dimesityldibenzo[hi, st]ovalene]	–	–	solubility of this compound in water (Solubility in water): 100 µg/mL
CC(C)[Si](C#Cc1c2cccc3c4ccc5ccc6c(C#C[Si](C(C)C)(C(C)C)C(C)C)c7cccc8c9ccc%10ccc1c1c%10c9c9c(c78)c6c5c4c9c1c23)(C(C)C)C(C)C [Example 6, 6, 14-di(triisopropylsilylethynyl) dibenzo[hi,st]ovalene]	61511 M⁻¹ cm⁻¹	narrow absorption spectrum as well as a narrow emission spectrum	–
CCCCCCCCCCCCOc1cc(-c2c3cccc4c5ccc6ccc7c(-c8cc(OCCCCCCCCCCCC)c(OCCCCCCCCCCCC)c(OCCCCCCCCCCCC)c8)c8cccc9c%10ccc%11ccc2c2c%11c%10c%10c(c89)c7c6c5c%10c2c34)cc(OCCCCCCCCCCCC)c1OCCCCCCCCCCCC [Example 7, 6,14-bis[3,4,5-tris(dodecoxyl)phenyl]dibenzo[hi,st]ovalene]	385000 M⁻¹ cm⁻¹	–	–
c1ccc(-c2c3cccc4c5ccc6ccc7c(-c8ccccc8)c8cccc9c%10ccc%11ccc2c2c%11c%10c%10c(c89)c7c6c5c%10c2c34)cc1 [Example 8, 6,14-diphenyldibenzo[hi,st]ovalene]	–	narrow absorption spectrum as well as a narrow emission spectrum	–
N-hexyl fumaric acid imide group substituted 6,14-dimesityldibenzo[hi,st]ovalene [Example 9]	–	narrow absorption spectrum as well as a narrow emission spectrum	–
